According to the supplement of paper PMC10307832:

Tests used:
Test in all cases: relative viability (nuclei count vs DMSO), 5 days (fraction); higher = more cells survive
Mirin + Dasatinib = compound: N=C1NC(=O)/C(=C/c2ccc(O)cc2)S1 [Mirin] + Cc1nc(Nc2ncc(C(=O)Nc3c(C)cccc3Cl)s2)cc(N2CCN(CCO)CC2)n1 [Dasatinib] (partner 0.075 µM)
In short: (§1)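 Cells from lung cancer lines were seeded into 1536-well plates and, one day later, dosed by pin tool. Treatments were either a single drug or a fixed dose of an anchor drug with five library-drug doses (not always all listed) in √10 steps. After 5 days, nuclei were stained in a one-step fixation (final 0.05% Triton X-100, 1% formaldehyde, 1 ug/ml Hoechst) and counted on 4× images, and relative viability is the treated-to-vehicle nuclei ratio, as the median of duplicate plates.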

[1] = compound: CCn1c(-c2nonc2N)nc2cnc(Oc3cccc(NC(=O)c4ccc(OCCN5CCOCC5)cc4)c3)cc21 + CC(=O)Nc1cccc(-n2c(=O)n(C3CC3)c(=O)c3c(Nc4ccc(I)cc4F)n(C)c(=O)c(C)c32)c1 [Trametinib] (partner 0.02 µM)
In short: as §1

[2] = compound: CCn1c(-c2nonc2N)nc2cnc(Oc3cccc(NC(=O)c4ccc(OCCN5CCOCC5)cc4)c3)cc21 + O=C(CCCCCCC(=O)Nc1ccccc1)NO [Vorinostat] (partner 1 µM)
In short: as §1

[3] = compound: CCC1=CN=CN=C1N2CCN(CC2)CC3=NC4=C(N3)C=C(C=C4)C(F)(F)F + Cc1nc(NC(=O)N2CCC[C@H]2C(N)=O)sc1-c1ccnc(C(C)(C)C(F)(F)F)c1 [Alpelisib] (partner 2 µM)
In short: as §1

Cell Line	relative viability (Mirin + Dasatinib; first compound 0.25 µM)	relative viability (Mirin + Dasatinib; first compound 0.7906 µM)	relative viability (Mirin + Dasatinib; first compound 2.5 µM)	relative viability (Mirin + Dasatinib; first compound 7.906 µM)	relative viability (Mirin + Dasatinib; first compound 25 µM)	relative viability ([1]; first compound 0.04 µM)	relative viability ([1]; first compound 0.1265 µM)	relative viability ([1]; first compound 0.4 µM)	relative viability ([1]; first compound 1.265 µM)	relative viability ([1]; first compound 4 µM)	relative viability ([2]; first compound 0.04 µM)	relative viability ([2]; first compound 0.1265 µM)	relative viability ([2]; first compound 0.4 µM)	relative viability ([2]; first compound 1.265 µM)	relative viability ([2]; first compound 4 µM)	relative viability ([3]; first compound 0.04 µM)	relative viability ([3]; first compound 0.1265 µM)	relative viability ([3]; first compound 0.4 µM)	relative viability ([3]; first compound 1.265 µM)	relative viability ([3]; first compound 4 µM)
NCI-H322M	0.264	0.258	0.246	0.268	0.244	0.631	0.604	0.522	0.487	0.57	1.26	1.31	0.856	0.554	0.675	0.741	0.892	0.749	0.705	0.748
NCI-H1395	0.439	0.434	0.429	0.376	0.418	1.18	0.986	0.849	0.622	0.717	0.753	0.604	0.658	0.441	0.44	1.04	1.1	1.05	0.951	1.04
NCI-H2009	0.292	0.341	0.323	0.227	0.139	0.199	0.192	0.161	0.16	0.142	0.632	0.582	0.56	0.429	0.277	1.24	1.12	1.12	1.19	1.14
NCI-H1651	0.417	0.382	0.501	0.355	0.376	0.925	0.891	0.828	0.623	0.81	0.604	0.639	0.467	0.292	0.497	1.01	0.961	0.876	0.818	0.907
HARA	0.194	–	0.222	0.247	0.195	0.494	0.874	0.687	0.333	0.254	0.524	0.551	0.538	0.577	0.645	0.858	0.744	0.816	0.651	0.812
NCI-H1944	0.218	0.244	0.2	0.218	0.224	0.409	0.365	0.441	0.467	0.359	0.662	0.572	0.463	0.481	0.261	0.993	0.827	0.778	–	0.802
NCI-H2405	0.195	0.252	0.206	0.206	0.192	0.537	0.385	0.311	0.253	0.26	0.938	0.488	0.264	0.239	0.238	0.858	0.768	0.651	–	0.941
201T	0.595	0.636	0.545	0.474	0.598	0.719	0.706	0.749	0.697	0.698	1.07	0.882	0.717	0.876	0.896	1	0.988	0.995	0.902	1.06
PC-3 [JPC-3]	1.03	0.979	1.04	0.981	1.08	0.693	0.589	0.591	0.598	0.537	0.919	0.701	0.713	0.549	0.692	1.06	0.94	1.02	1.04	0.96
NCI-H838	0.275	0.277	0.309	0.394	0.346	0.347	0.231	0.213	0.17	0.188	0.459	0.372	0.337	0.329	0.205	1.1	0.963	0.971	0.994	0.986
COR-L23	0.55	0.563	0.534	0.553	0.524	0.647	0.517	0.248	0.192	0.16	0.508	0.309	0.225	0.13	0.113	0.899	0.721	0.886	0.702	0.783
HOP-62	0.699	0.756	0.743	0.671	0.56	0.381	0.361	0.371	0.301	0.314	0.936	0.769	0.521	0.382	0.394	1.16	0.962	0.815	1.01	1.13
NCI-H1915	0.308	–	0.332	0.342	0.31	0.267	0.31	0.309	0.227	0.221	0.507	0.52	0.472	0.244	0.225	1.1	1.03	1.06	0.957	1.03
BEN	0.321	0.315	0.308	0.305	0.246	0.955	0.972	0.702	0.518	0.521	0.566	0.544	0.371	0.349	0.402	0.961	0.965	0.898	0.574	0.583
NCI-H1437	0.405	0.41	0.386	0.309	0.347	0.599	0.556	0.517	0.435	0.403	0.88	0.93	0.903	0.682	0.512	1	0.93	0.831	0.795	0.855
EMC-BAC-2	0.328	0.324	0.349	0.271	0.249	0.905	0.922	0.826	0.401	0.445	0.438	0.297	0.159	0.147	0.167	0.748	0.697	0.726	0.723	0.774
